In publication PMC7355972, “Flavonoids in Decorticated Sorghum Grains Exert Antioxidant, Antidiabetic and Antiobesity Activities” (Molecules, 2020):

Assays:
[1] = ABTS radical scavenging activity; conditions: soluble (70% ethanol) extracts; 734 nm
Description: The ABTS radical scavenging assay described by Ofosu et al. was used. ABTS^+ stock solution was prepared by reacting equal volumes of 7 mM ABTS solution with 2.45 mM potassium persulfate solution in the dark at room temperature for 16 h. Using ethanol, the ABTS+ stock solution was diluted to obtain an absorbance of approximately 0.70 at 734 nm. Appropriately, 80 μL sample extracts of various concentrations were added to 1 mL freshly prepared ABTS+ radical solution, and the absorbance was read at 734 nm.

[2] = DPPH radical scavenging activity; conditions: soluble (70% ethanol) extracts; 30 min, 517 nm
Description: The method previously described by Ofosu et al. was used to measure DPPH radical scavenging by ethanol extracts using a 24-well microplate reader. Briefly, 200 μL sample extracts of various concentrations were added to 2 mL freshly made DPPH radical solution (100 μM). After 30 min incubation at room temperature, absorbance was read at 517 nm.

[3] = system: advanced glycation end-products (AGEs) formation; test: Inhibition of protein glycation (BSA/D-glucose, fluorescent AGEs); conditions: BSA + D-glucose, 37 °C for a week
Description: The procedure by Sekhon-Loodu and Rupasinghe was adapted with slight modification. Bovine serum albumin (BSA), D-glucose and aminoguanidine were dissolved in 0.2 M phosphate buffer saline (pH 7.4) containing sodium azide (0.02% w/v). Equal volumes containing BSA (5.0 mg/mL) and D-glucose (36 mg/mL) and the negative control or the test samples or aminoguanidine at different concentrations (0.01, 0.02, 0.04, 0.05, 0.1, 0.2, 0.5 and 1.0 mg/mL) were added to reach a final volume of 1.0 mL. Aminoguanidine, a known AGE formation inhibitor, was used as the positive control. The mixtures in Eppendorf tubes were incubated in triplicate at 37 °C for a week. Fluorescent AGEs were measured using a microplate reader at 340 nm excitation and 420 nm emission wavelengths. Experiments were conducted in triplicates. The percentage of the AGE inhibition was calculated as shown below:(3) Inhibition (%)=[1−(Fluorescent of the test/Fluorescent of control)]×100
The results were expressed in terms of IC50 representing the concentration of test extracts required to cause the inhibition of AGE formation by 50%.

ABTS radical scavenging activity IC50 [1] [µg/mL]	DPPH radical scavenging activity IC50 [2] [µg/mL]	SMILES	AGEs formation inhibitory activity IC50 [3] [µg/mL]
74.60 ± 1.45	48.7 ± 2.19	Cc1c(C)c2c(c(C)c1O)CCC(C)(C(=O)O)O2 (stereo not drawn) [Trolox, 6-hydroxy-2,5,7,8-tetramethylchromane-2-carboxylic acid]	–
–	–	N=C(N)NN [aminoguanidine]	52.30
